Data from ChEMBL document CHEMBL5154649, “Design, synthesis, and characterization of novel aminoalcohol quinolines with strong in vitro antimalarial activity” (Eur J Med Chem, 2022).
One block for each molecule: values may come before it. Calls of active or inactive are those of the source. The calls are words filed in the database; no cut-off is given here.

How the values were obtained:
[1] = Selectivity index, ratio of IC50 for cytotoxicity against human THP-1 cells to IC50 for antiplasmodial activity against Plasmodium falciparum 3D7 infected in human erythrocytes by HRP2-ELISA; format: toxicity, cell-based; settings: read-out: Ratio IC50
[2] = Selectivity index, ratio of IC50 for cytotoxicity against chinese hamster CHO cells to IC50 for antiplasmodial activity against Plasmodium falciparum 3D7 infected in human erythrocytes by HRP2-ELISA; format: toxicity, cell-based; settings: read-out: Ratio IC50
[3] = Selectivity index, ratio of IC50 for cytotoxicity against human HepG2 cells to IC50 for antiplasmodial activity against Plasmodium falciparum 3D7 infected in human erythrocytes by HRP2-ELISA; format: toxicity, cell-based; settings: read-out: Ratio IC50
[4] = Selectivity index, ratio of IC50 for human HFF cells to IC50 for antiplasmodial activity against Plasmodium falciparum 3D7 infected in human erythrocytes by HRP2-ELISA; format: toxicity, cell-based; settings: read-out: Ratio IC50
Plasmodium falciparum [5] = test: Antiplasmodial activity against CQ-susceptible Plasmodium falciparum 3D7 infected in human erythrocytes assessed as inhibition of parasite growth measured after 72 hrs by HRP2-ELISA; format: functional, organism-based; settings: 3D7, Erythrocyte
Plasmodium falciparum [6] = test: Antiplasmodial activity against CQ-resistant Plasmodium falciparum W2 assessed as inhibition of parasite growth measured after 48 hrs by SYBR Green 1 dye based fluorescence assay; format: functional, organism-based; settings: W2, 48 h
[7] = Cytotoxicity against human THP-1 cells assessed as reduction in cell viability incubated for 72 hrs by MTT assay; format: toxicity, cell-based
[8] = Cytotoxicity against human HFF cells assessed as reduction in cell viability incubated for 72 hrs by MTT assay; format: toxicity, cell-based
[9] = Cytotoxicity against human HepG2 cells assessed as reduction in cell viability incubated for 72 hrs by MTT assay; format: toxicity, cell-based
Plasmodium falciparum [10] = test: Antiplasmodial activity against CQ-susceptible Plasmodium falciparum 3D7 assessed as inhibition of parasite growth measured after 48 hrs by SYBR Green 1 dye based fluorescence assay; format: functional, organism-based; settings: 3D7, 48 h
Plasmodium falciparum [11] = test: Selectivity index, ratio of IC50 for antiplasmodial activity against CQ-susceptible Plasmodium falciparum 3D7 to IC50 for antiplasmodial activity against CQ-resistant Plasmodium falciparum W2 by SYBR Green 1 dye based fluorescence assay; format: functional
Plasmodium falciparum [12] = test: Antiplasmodial activity CQ-resistant Plasmodium falciparum W2 infected in human erythrocytes assessed as inhibition of parasite growth measured after 72 hrs by HRP2-ELISA; format: functional, organism-based; settings: W2, Erythrocyte
[13] = Cytotoxicity against Chinese hamster CHO cells assessed as reduction in cell viability incubated for 24 hrs by MTT assay; format: toxicity, cell-based, Cricetulus griseus
Plasmodium falciparum [14] = test: Selectivity index, ratio of IC50 for antiplasmodial activity against CQ-susceptible Plasmodium falciparum 3D7 to IC50 for antiplasmodial activity CQ-resistant Plasmodium falciparum W2 by HRP2-ELISA; format: functional
Plasmodium berghei [15] = test: Antimalarial activity against Plasmodium berghei ANKA infected in BALB/c mouse assessed as time required for clearance of blood parasites at 9 mg/kg, ip administered daily for 5 days; format: functional; settings: time 5 day
[16] = Apparent permeability across apical to basolateral side in human Caco-2/TC7 cells at 20 uM incubated for 2 hrs by LC-MS/MS analysis; format: ADME, cell-based, Caco2/TC7
[17] = biological target: Voltage-gated inwardly rectifying potassium channel KCNH2 (Homo sapiens, UniProt Q12809); test: Inhibition of hERG channel expressed in CHO cells at holding potential of -80 mV by whole cell patch clamp method; format: toxicity, cell-based
[18] = Apparent permeability across apical to basolateral side in human Caco-2/TC7 cells assessed as drug recovery at 20 uM incubated for 2 hrs by LC-MS/MS analysis; format: ADME, cell-based, Caco2/TC7; settings: read-out: Drug recovery
Plasmodium berghei [19] = test: Antimalarial activity against Plasmodium berghei ANKA infected in BALB/c mouse assessed as increase in animal survival rate at 9 mg/kg, ip administered daily for 5 days and measured for 30 days; format: functional, organism-based; settings: time 30.0 day
[20] = Metabolic stability in mouse liver microsomes assessed as intrinsic clearance at 0.5 uM incubated for 30 mins by LC-MS/MS analysis; format: ADME, Microsome; settings: read-out: CLH
[21] = Metabolic stability in rat liver microsomes assessed as intrinsic clearance at 0.5 uM incubated for 30 mins by LC-MS/MS analysis; format: ADME, Microsome; settings: read-out: CLH
[22] = Metabolic stability in human hepatocytes assessed as intrinsic clearance incubated up to 24 hrs measured per 10^6 cells by LC-MS/MS analysis; format: ADME, cell-based, Hepatocyte
[23] = Metabolic stability in human liver microsomes assessed as intrinsic clearance at 0.5 uM incubated for 30 mins by LC-MS/MS analysis; format: ADME, Microsome; settings: read-out: CLH

Voltage-gated inwardly rectifying potassium channel KCNH2, sequence (Q12809 whole entry): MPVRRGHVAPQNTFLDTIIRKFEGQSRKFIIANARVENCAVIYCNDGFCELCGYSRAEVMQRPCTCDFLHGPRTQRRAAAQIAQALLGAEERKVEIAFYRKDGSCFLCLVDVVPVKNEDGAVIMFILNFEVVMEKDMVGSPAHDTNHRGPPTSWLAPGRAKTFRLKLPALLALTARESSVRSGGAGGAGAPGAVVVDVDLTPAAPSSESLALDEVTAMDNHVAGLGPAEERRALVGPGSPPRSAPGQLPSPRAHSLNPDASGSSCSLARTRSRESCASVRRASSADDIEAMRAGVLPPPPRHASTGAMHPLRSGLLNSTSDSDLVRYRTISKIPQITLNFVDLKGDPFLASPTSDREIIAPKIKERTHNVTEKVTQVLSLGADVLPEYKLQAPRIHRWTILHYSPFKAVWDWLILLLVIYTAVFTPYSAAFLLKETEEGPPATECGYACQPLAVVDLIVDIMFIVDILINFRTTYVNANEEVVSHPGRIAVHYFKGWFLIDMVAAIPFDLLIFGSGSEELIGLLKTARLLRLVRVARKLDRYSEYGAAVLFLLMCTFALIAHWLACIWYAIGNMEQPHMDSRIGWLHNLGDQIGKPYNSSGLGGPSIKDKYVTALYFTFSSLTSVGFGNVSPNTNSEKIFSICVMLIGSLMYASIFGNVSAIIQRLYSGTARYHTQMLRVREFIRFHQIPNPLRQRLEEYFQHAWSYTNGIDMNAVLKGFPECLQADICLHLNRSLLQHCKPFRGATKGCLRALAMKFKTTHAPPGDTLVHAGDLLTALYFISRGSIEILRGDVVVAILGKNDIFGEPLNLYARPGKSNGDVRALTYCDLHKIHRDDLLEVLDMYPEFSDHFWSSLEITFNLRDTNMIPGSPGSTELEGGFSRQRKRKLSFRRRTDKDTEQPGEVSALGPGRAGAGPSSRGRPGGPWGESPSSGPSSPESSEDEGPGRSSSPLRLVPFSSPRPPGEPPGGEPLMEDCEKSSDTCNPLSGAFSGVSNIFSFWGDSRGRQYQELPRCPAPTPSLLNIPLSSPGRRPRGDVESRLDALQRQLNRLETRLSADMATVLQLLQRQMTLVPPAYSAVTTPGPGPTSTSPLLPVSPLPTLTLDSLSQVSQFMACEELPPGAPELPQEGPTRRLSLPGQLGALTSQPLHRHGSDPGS

SMILES: O[C@@H](CNCCNC(c1ccccc1)c1ccccc1)c1cc(C(F)(F)F)nc2c(C(F)(F)F)cccc12
selectivity ratio [1]: 100
selectivity ratio [2]: 233
selectivity ratio [3]: 177
selectivity ratio [4]: 881
IC50 (Plasmodium falciparum [5]): 49.8 nM
IC50 (Plasmodium falciparum [6]): 34 nM
IC50 at 72 h [7]: 5 µM
IC50 at 72 h [8]: 43.9 µM
IC50 at 72 h [9]: 8.8 µM
IC50 (Plasmodium falciparum [10]): 35.8 nM
Ratio IC50 (Plasmodium falciparum [11]): 1.05
IC50 (Plasmodium falciparum [12]): 20.7 nM
IC50 at 24 h [13]: 11.6 µM
Ratio IC50 (Plasmodium falciparum [14]): 2.4

SMILES: O[C@@H](CNCC1CC1)c1cc(C(F)(F)F)nc2c(C(F)(F)F)cccc12
selectivity ratio [1]: 693
selectivity ratio [2]: 1420
selectivity ratio [3]: 369
selectivity ratio [4]: 2700
IC50 (Plasmodium falciparum [5]): 17.9 nM
IC50 (Plasmodium falciparum [6]): 16.8 nM
IC50 at 72 h [7]: 12.4 µM
IC50 at 72 h [8]: 48.4 µM
IC50 at 72 h [9]: 6.6 µM
IC50 (Plasmodium falciparum [10]): 23 nM
Ratio IC50 (Plasmodium falciparum [11]): 1.4
IC50 (Plasmodium falciparum [12]): 15.3 nM
IC50 at 24 h [13]: 25.4 µM
Ratio IC50 (Plasmodium falciparum [14]): 1.2

SMILES: Cl.O[C@@H](c1cc(C(F)(F)F)nc2c(C(F)(F)F)cccc12)[C@H]1CCCCN1 (relative stereo)
Time (Plasmodium berghei [15]): <100 h

Papp A→B at 2 h, 20 µM [16]: 0.5 ×10⁻⁶ cm/s
recovery at 2 h, 20 µM [18]: 90%
SMILES: CCCCCCCNC[C@H](O)c1cc(C(F)(F)F)nc2c(C(F)(F)F)cccc12
IC50 [17]: > 30 µM

SMILES: OC[C@H](Cc1ccccc1)NC[C@H](O)c1cc(C(F)(F)F)nc2c(C(F)(F)F)cccc12 (single isomer, unassigned)
selectivity ratio [1]: 123
selectivity ratio [2]: 470
selectivity ratio [3]: 303
selectivity ratio [4]: 718
IC50 (Plasmodium falciparum [5]): 74.8 nM
IC50 (Plasmodium falciparum [6]): 3.3 nM
IC50 at 72 h [7]: 9.2 µM
IC50 at 72 h [8]: 53.7 µM
IC50 at 72 h [9]: 22.7 µM
IC50 (Plasmodium falciparum [10]): 30.9 nM
Ratio IC50 (Plasmodium falciparum [11]): 9.4
IC50 (Plasmodium falciparum [12]): 61.9 nM
IC50 at 24 h [13]: 35.2 µM
Ratio IC50 (Plasmodium falciparum [14]): 1.2

SMILES: O[C@H](CNCCCC(F)(F)F)c1cc(C(F)(F)F)nc2c(C(F)(F)F)cccc12
selectivity ratio [1]: > 8120
selectivity ratio [2]: 2560
selectivity ratio [3]: 493
selectivity ratio [4]: 2310
IC50 (Plasmodium falciparum [5]): 15.4 nM
IC50 (Plasmodium falciparum [6]): 8.55 nM
IC50 at 72 h [7]: > 125 µM
IC50 at 72 h [8]: 35.6 µM
IC50 at 72 h [9]: 7.6 µM
IC50 (Plasmodium falciparum [10]): 11.4 nM
Ratio IC50 (Plasmodium falciparum [11]): 1.3
IC50 (Plasmodium falciparum [12]): 18.2 nM
IC50 at 24 h [13]: 39.5 µM
Ratio IC50 (Plasmodium falciparum [14]): 0.85

SMILES: OC[C@H](Cc1ccccc1)NC[C@@H](O)c1cc(C(F)(F)F)nc2c(C(F)(F)F)cccc12
selectivity ratio [1]: 124
selectivity ratio [2]: 511
selectivity ratio [3]: 188
selectivity ratio [4]: 437
IC50 (Plasmodium falciparum [5]): 58.1 nM
IC50 (Plasmodium falciparum [6]): 5.6 nM
IC50 at 72 h [7]: 7.2 µM
IC50 at 72 h [8]: 25.4 µM
IC50 at 72 h [9]: 10.9 µM
IC50 (Plasmodium falciparum [10]): 30.2 nM
Ratio IC50 (Plasmodium falciparum [11]): 5.4
IC50 (Plasmodium falciparum [12]): 39.4 nM
IC50 at 24 h [13]: 29.7 µM
Ratio IC50 (Plasmodium falciparum [14]): 1.5

SMILES: O[C@H](CNCCN1CCN(C(c2ccccc2)c2ccccc2)CC1)c1cc(C(F)(F)F)nc2c(C(F)(F)F)cccc12
selectivity ratio [1]: 93
selectivity ratio [2]: 213
selectivity ratio [3]: 60
selectivity ratio [4]: 114
IC50 (Plasmodium falciparum [5]): 116 nM
IC50 (Plasmodium falciparum [6]): 63 nM
IC50 at 72 h [7]: 10.8 µM
IC50 at 72 h [8]: 13.3 µM
IC50 at 72 h [9]: 7 µM
IC50 (Plasmodium falciparum [10]): 75.7 nM
Ratio IC50 (Plasmodium falciparum [11]): 1.2
IC50 (Plasmodium falciparum [12]): 89.3 nM
IC50 at 24 h [13]: 24.8 µM
Ratio IC50 (Plasmodium falciparum [14]): 1.3

SMILES: COC[C@H](Cc1ccccc1)NC[C@H](O)c1cc(C(F)(F)F)nc2c(C(F)(F)F)cccc12
selectivity ratio [1]: 728
selectivity ratio [2]: 1620
selectivity ratio [3]: 414
selectivity ratio [4]: 1580
IC50 (Plasmodium falciparum [5]): 23.2 nM
IC50 (Plasmodium falciparum [6]): 11.4 nM
IC50 at 72 h [7]: 16.9 µM
IC50 at 72 h [8]: 36.7 µM
IC50 at 72 h [9]: 9.6 µM
IC50 (Plasmodium falciparum [10]): 17.4 nM
Ratio IC50 (Plasmodium falciparum [11]): 1.5
IC50 (Plasmodium falciparum [12]): 15.4 nM
IC50 at 24 h [13]: 37.6 µM
Ratio IC50 (Plasmodium falciparum [14]): 1.5

SMILES: O[C@@H](c1cc(C(F)(F)F)nc2c(C(F)(F)F)cccc12)[C@H]1CCCCN1 (relative stereo)
Activity (Plasmodium berghei [19]): Active

Papp A→B at 2 h, 20 µM [16]: 4.5 ×10⁻⁶ cm/s
recovery at 2 h, 20 µM [18]: 85%
microsomal CLint at 0.5 µM [20]: < 20 µL/min/mg
microsomal CLint at 0.5 µM [21]: < 20 µL/min/mg
CLH [22]: 0.004 mL/h
microsomal CLint at 0.5 µM [23]: < 20 µL/min/mg
SMILES: O[C@H](c1cc(C(F)(F)F)nc2c(C(F)(F)F)cccc12)[C@@H]1CCCCN1 [(R,S)-MEFLOQUINE]

Papp A→B at 2 h, 20 µM [16]: 5.3 ×10⁻⁶ cm/s
recovery at 2 h, 20 µM [18]: 65%
SMILES: CCCCCCCNC[C@@H](O)c1cc(C(F)(F)F)nc2c(C(F)(F)F)cccc12
IC50 [17]: 7 µM

SMILES: O[C@@H](c1cc(C(F)(F)F)nc2c(C(F)(F)F)cccc12)[C@H]1CCCCN1 [(S,R)-MEFLOQUINE]
Papp A→B at 2 h, 20 µM [16]: 4.5 ×10⁻⁶ cm/s
recovery at 2 h, 20 µM [18]: 91%
microsomal CLint at 0.5 µM [20]: < 20 µL/min/mg
IC50 (Plasmodium falciparum [5]): 54.1 nM
IC50 (Plasmodium falciparum [6]): 31.8 nM
microsomal CLint at 0.5 µM [21]: < 20 µL/min/mg
IC50 (Plasmodium falciparum [12]): 28.3 nM
CLH [22]: 0.002 mL/h
microsomal CLint at 0.5 µM [23]: < 20 µL/min/mg

Papp A→B at 2 h, 20 µM [16]: 11.4 ×10⁻⁶ cm/s
recovery at 2 h, 20 µM [18]: 99%
SMILES: CCCCCNC[C@@H](O)c1cc(C(F)(F)F)nc2c(C(F)(F)F)cccc12
IC50 [17]: 8.8 µM

Papp A→B at 2 h, 20 µM [16]: 3.7 ×10⁻⁶ cm/s
recovery at 2 h, 20 µM [18]: 86%
SMILES: CCCCCNC[C@H](O)c1cc(C(F)(F)F)nc2c(C(F)(F)F)cccc12
IC50 [17]: 5.6 µM

SMILES: OC[C@@H](Cc1ccccc1)NC[C@@H](O)c1cc(C(F)(F)F)nc2c(C(F)(F)F)cccc12 (single isomer, unassigned)
selectivity ratio [1]: 73
selectivity ratio [2]: 345
selectivity ratio [3]: 151
selectivity ratio [4]: 444
IC50 (Plasmodium falciparum [5]): 102 nM
IC50 (Plasmodium falciparum [6]): 10.3 nM
IC50 at 72 h [7]: 7.5 µM
IC50 at 72 h [8]: 45.4 µM
IC50 at 72 h [9]: 15.4 µM
IC50 (Plasmodium falciparum [10]): 35.6 nM
Ratio IC50 (Plasmodium falciparum [11]): 3.5
IC50 (Plasmodium falciparum [12]): 82.7 nM
IC50 at 24 h [13]: 35.8 µM
Ratio IC50 (Plasmodium falciparum [14]): 1.2

SMILES: O[C@@H](CNCCCC(F)(F)F)c1cc(C(F)(F)F)nc2c(C(F)(F)F)cccc12
selectivity ratio [1]: 144
selectivity ratio [2]: 199
selectivity ratio [3]: 130
selectivity ratio [4]: 64
IC50 (Plasmodium falciparum [5]): 227 nM
IC50 (Plasmodium falciparum [6]): 61 nM
IC50 at 72 h [7]: 32.8 µM
IC50 at 72 h [8]: 14.6 µM
IC50 at 72 h [9]: 29.7 µM
IC50 (Plasmodium falciparum [10]): 57.6 nM
Ratio IC50 (Plasmodium falciparum [11]): 0.9
IC50 (Plasmodium falciparum [12]): 229 nM
IC50 at 24 h [13]: 45.4 µM
Ratio IC50 (Plasmodium falciparum [14]): 1
